The assay has as its system microfilariae of Dirofilaria immitis. Kind of assay: Dirofilaria immitis, Microfilaria (DiMF) In vitro Assay. Format: cell-based. As to conditions: 72 h, read-out: DiMF Minimum Effective Dose (MED), approximately 72 hours incubation, microfilariae assessed for survival or paralysis.

Each structure is given as a SMILES string.

Take `CC(=O)NCc1cnn(Cc2ccc(C[C@H]3OC(=O)[C@H](CC(C)C)N(C)C(=O)[C@@H](C)OC(=O)[C@H](CC(C)C)N(C)C(=O)[C@@H](Cc4ccccc4)OC(=O)[C@H](CC(C)C)N(C)C(=O)[C@@H](C)OC(=O)[C@H](CC(C)C)N(C)C3=O)cc2)c1` [Example 2-52, N-((1-(4-(((2R,5S,8R,11S,14R,17S,20R,23S)-14-benzyl-5,11,17,23-tetraisobutyl-4,8,10,16,20,22-hexamethyl-3,6,9,12,15,18,21,24-octaoxo-1,7,13,19-tetraoxa-4,10,16,22-tetraazacyclotetracosan-2-yl)methyl)benzyl)-1H-pyrazol-4-yl)methyl)acetamide]: the minimal effective concentration lay in the range of 0.01 to 0.1 µM.
Under `CC(C)C[C@H]1C(=O)O[C@H](Cc2ccc(Cn3nc(C(C)C)cc3C(C)C)cc2)C(=O)N(C)[C@@H](CC(C)C)C(=O)O[C@H](C)C(=O)N(C)[C@@H](CC(C)C)C(=O)O[C@H](Cc2ccccc2)C(=O)N(C)[C@@H](CC(C)C)C(=O)O[C@H](C)C(=O)N1C` [Example 2-54, (3S,6R,9S,12R,15S,18R,21S,24R)-6-benzyl-18-(4-((3,5-diisopropyl-1H-pyrazol-1-yl)methyl)benzyl)-3,9,15,21-tetraisobutyl-4,10,12,16,22,24-hexamethyl-1,7,13,19-tetraoxa-4,10,16,22-tetraazacyclotetracosan-2,5,8,11,14,17,20,23-octaone] stands 0.01 to 0.1 µM; under `CC(C)C[C@H]1C(=O)O[C@H](Cc2ccc(Cn3ccc(-c4ccccc4)n3)cc2)C(=O)N(C)[C@@H](CC(C)C)C(=O)O[C@H](C)C(=O)N(C)[C@@H](CC(C)C)C(=O)O[C@H](Cc2ccccc2)C(=O)N(C)[C@@H](CC(C)C)C(=O)O[C@H](C)C(=O)N1C` [Example 2-56, (3S,6R,9S,12R,15S,18R,21S,24R)-6-benzyl-3,9,15,21-tetraisobutyl-4,10,12,16,22,24-hexamethyl-18-(4-((3-phenyl-1H-pyrazol-1-yl)methyl)benzyl)-1,7,13,19-tetraoxa-4,10,16,22-tetraazacyclotetracosan-2,5,8,11,14,17,20,23-octaone], 0.01 to 0.1 µM; under `CC(C)C[C@H]1C(=O)O[C@H](Cc2ccc(Cn3ccc(Br)n3)cc2)C(=O)N(C)[C@@H](CC(C)C)C(=O)O[C@H](C)C(=O)N(C)[C@@H](CC(C)C)C(=O)O[C@H](Cc2ccccc2)C(=O)N(C)[C@@H](CC(C)C)C(=O)O[C@H](C)C(=O)N1C` [Example 2-57, (3S,6R,9S,12R,15S,18R,21S,24R)-6-benzyl-18-(4-((3-bromo-1H-pyrazol-1-yl)methyl)benzyl)-3,9,15,21-tetraisobutyl-4,10,12,16,22,24-hexamethyl-1,7,13,19-tetraoxa-4,10,16,22-tetraazacyclotetracosan-2,5,8,11,14,17,20,23-octaone], 0.01 to 0.1 µM.
Under `CC(C)C[C@H]1C(=O)O[C@H](Cc2ccc(Cn3ccc(C(F)(F)F)n3)cc2)C(=O)N(C)[C@@H](CC(C)C)C(=O)O[C@H](C)C(=O)N(C)[C@@H](CC(C)C)C(=O)O[C@H](Cc2ccccc2)C(=O)N(C)[C@@H](CC(C)C)C(=O)O[C@H](C)C(=O)N1C` [Example 2-58, (3S,6R,9S,12R,15S,18R,21S,24R)-6-benzyl-3,9,15,21-tetraisobutyl-4,10,12,16,22,24-hexamethyl-18-(4-((3-(trifluoromethyl)-1H-pyrazol-1-yl)methyl)benzyl)-1,7,13,19-tetraoxa-4,10,16,22-tetraazacyclotetracosan-2,5,8,11,14,17,20,23-octaone] stands 0.01 to 0.1 µM.
Under `CC(C)C[C@H]1C(=O)O[C@H](Cc2ccc(Cn3cc(CN)cn3)cc2)C(=O)N(C)[C@@H](CC(C)C)C(=O)O[C@H](C)C(=O)N(C)[C@@H](CC(C)C)C(=O)O[C@H](Cc2ccccc2)C(=O)N(C)[C@@H](CC(C)C)C(=O)O[C@H](C)C(=O)N1C` [Example 2-59, (3S,6R,9S,12R,15S,18R,21S,24R)-6-(4-((4-(aminomethyl)-1H-pyrazol-1-yl)methyl)benzyl)-18-benzyl-3,9,15,21-tetraisobutyl-4,10,12,16,22,24-hexamethyl-1,7,13,19-tetraoxa-4,10,16,22-tetraazacyclotetracosan-2,5,8,11,14,17,20,23-octaone] stands 0.01 to 0.1 µM.
In the case of `Cc1nn(Cc2ccc(C[C@H]3OC(=O)[C@H](CC(C)C)N(C)C(=O)[C@@H](C)OC(=O)[C@H](CC(C)C)N(C)C(=O)[C@@H](Cc4ccccc4)OC(=O)[C@H](CC(C)C)N(C)C(=O)[C@@H](C)OC(=O)[C@H](CC(C)C)N(C)C3=O)cc2)c(C)c1S(=O)(=O)N1CCCCC1` [Example 2-60, (3S,6R,9S,12R,15S,18R,21S,24R)-6-benzyl-18-(4-((3,5-dimethyl-4-(piperidin-1-ylsulfonyl)-1H-pyrazol-1-yl)methyl)benzyl)-3,9,15,21-tetraisobutyl-4,10,12,16,22,24-hexamethyl-1,7,13,19-tetraoxa-4,10,16,22-tetraazacyclotetracosan-2,5,8,11,14,17,20,23-octaone], the minimal effective concentration lay within 0.01 to 0.1 µM.
Under `CC(C)C[C@H]1C(=O)O[C@H](Cc2ccc(Cn3cc(C4=CCCC4)cn3)cc2)C(=O)N(C)[C@@H](CC(C)C)C(=O)O[C@H](C)C(=O)N(C)[C@@H](CC(C)C)C(=O)O[C@H](Cc2ccccc2)C(=O)N(C)[C@@H](CC(C)C)C(=O)O[C@H](C)C(=O)N1C` [Example 2-61, (3S,6R,9S,12R,15S,18R,21S,24R)-6-benzyl-18-(4-((4-(cyclopent-1-en-1-yl)-1H-pyrazol-1-yl)methyl)benzyl)-3,9,15,21-tetraisobutyl-4,10,12,16,22,24-hexamethyl-1,7,13,19-tetraoxa-4,10,16,22-tetraazacyclotetracosan-2,5,8,11,14,17,20,23-octaone] stands 0.01 to 0.1 µM; under `CC(C)C[C@H]1C(=O)O[C@H](Cc2ccc(Cn3nccc3-c3ccccc3)cc2)C(=O)N(C)[C@@H](CC(C)C)C(=O)O[C@H](C)C(=O)N(C)[C@@H](CC(C)C)C(=O)O[C@H](Cc2ccccc2)C(=O)N(C)[C@@H](CC(C)C)C(=O)O[C@H](C)C(=O)N1C` [Example 2-67, (3S,6R,9S,12R,15S,18R,21S,24R)-6-benzyl-3,9,15,21-tetraisobutyl-4,10,12,16,22,24-hexamethyl-18-(4-((5-phenyl-1H-pyrazol-1-yl)methyl)benzyl)-1,7,13,19-tetraoxa-4,10,16,22-tetraazacyclotetracosan-2,5,8,11,14,17,20,23-octaone], 0.01 to 0.1 µM; under `CC(C)C#Cc1cnn(Cc2ccc(C[C@H]3OC(=O)[C@H](CC(C)C)N(C)C(=O)[C@@H](C)OC(=O)[C@H](CC(C)C)N(C)C(=O)[C@@H](Cc4ccccc4)OC(=O)[C@H](CC(C)C)N(C)C(=O)[C@@H](C)OC(=O)[C@H](CC(C)C)N(C)C3=O)cc2)c1` [Example 2-70, (3S,6R,9S,12R,15S,18R,21S,24R)-6-benzyl-3,9,15,21-tetraisobutyl-4,10,12,16,22,24-hexamethyl-18-(4-((4-(3-methylbut-1-yn-1-yl)-1H-pyrazol-1-yl)methyl)benzyl)-1,7,13,19-tetraoxa-4,10,16,22-tetraazacyclotetracosan-2,5,8,11,14,17,20,23-octaone], 0.01 to 0.1 µM.

The values are drawn from patent US11331369B2, “Endoparasitic depsipeptides” (Zoetis Services LLC, priority 2017, dated 2022).
